Assay results from ChEMBL document CHEMBL3045959, “QSAR studies on substituted 3- or 4-phenyl-1,8-naphthyridine derivatives as antimicrobial agents” (2012).

Legend:
Type in all cases: functional
[1] = test system: Mycobacterium tuberculosis; experiment: Antimycobacterial activity against Mycobacterium tuberculosis H37Rv at 6.25 ug/ml
Staphylococcus aureus = experiment: Antibacterial activity against Staphylococcus aureus by […]
Escherichia coli = experiment: Antibacterial activity against Escherichia coli by […]

Cc1ccc2c(Cl)c(C)c(N3CCCCC3)nc2n1
-log(inh/100-inh) [1]: -0.6886

CCOC(=O)N1CCN(c2cc(-c3ccccc3)c3ccc(N4CCNCC4)nc3n2)CC1
-log(inh/100-inh) [1]: 1.0607 | inhibition zone (IZ) (Staphylococcus aureus): 23 mm | inhibition zone (IZ) (Escherichia coli): 25 mm

CCOC(=O)N1CCN(c2nc3nc(N4CCOCC4)ccc3cc2-c2ccccc2)CC1
-log(inh/100-inh) [1]: 0.2499 | inhibition zone (IZ) (Staphylococcus aureus): 13 mm | inhibition zone (IZ) (Escherichia coli): 17 mm

CCOC(=O)N1CCN(c2nc3nc(Cl)ccc3cc2-c2ccccc2)CC1
-log(inh/100-inh) [1]: 0.3076 | inhibition zone (IZ) (Escherichia coli): 24 mm

COC(=O)N1CCN(c2nc3nc(OC)ccc3cc2-c2ccccc2)CC1
-log(inh/100-inh) [1]: -0.1224 | inhibition zone (IZ) (Staphylococcus aureus): 16 mm | inhibition zone (IZ) (Escherichia coli): 12 mm

c1ccc(-c2cc3ccc(N4CCNCC4)nc3nc2N2CCNCC2)cc1
-log(inh/100-inh) [1]: 0.432 | inhibition zone (IZ) (Staphylococcus aureus): 14 mm | inhibition zone (IZ) (Escherichia coli): 12 mm

c1ccc(-c2cc3ccc(N4CCCCC4)nc3nc2N2CCNCC2)cc1
-log(inh/100-inh) [1]: 0.8653 | inhibition zone (IZ) (Escherichia coli): 18 mm

COc1ccc2cc(-c3ccccc3)c(N3CCNCC3)nc2n1
-log(inh/100-inh) [1]: 0.3076 | inhibition zone (IZ) (Staphylococcus aureus): 12 mm | inhibition zone (IZ) (Escherichia coli): 16 mm

Cc1ccc2c(Cl)c(C)c(Cl)nc2n1
-log(inh/100-inh) [1]: -1.9956

Cc1ccc2c(Cl)c(Cc3ccccc3)c(C)nc2n1
-log(inh/100-inh) [1]: 0.0872

Cc1ccc2c(Cl)c(Cc3ccccc3)c(N3CCOCC3)nc2n1
-log(inh/100-inh) [1]: -0.6021

Cc1ccc2c(Cl)c(Cc3ccccc3)c(N3CCCCC3)nc2n1
-log(inh/100-inh) [1]: -0.1581

Cc1ccc2c(N3CCOCC3)c(C)c(N3CCCCC3)nc2n1
-log(inh/100-inh) [1]: -0.908

Cc1ccc2c(N3CCOCC3)c(Cc3ccccc3)c(N3CCCCC3)nc2n1
-log(inh/100-inh) [1]: -0.6021

Cc1ccc2c(N3CCCCC3)c(Cc3ccccc3)c(N3CCCCC3)nc2n1
-log(inh/100-inh) [1]: 1.3802

Oc1ccc2c(Cl)cc(N3CCOCC3)nc2n1
-log(inh/100-inh) [1]: -1.6902

Clc1ccc2c(Cl)cc(N3CCOCC3)nc2n1
-log(inh/100-inh) [1]: -0.2126

Clc1cc(N2CCOCC2)nc2nc(N3CCCCC3)ccc12
-log(inh/100-inh) [1]: -0.432

c1cc2c(N3CCOCC3)cc(N3CCOCC3)nc2nc1N1CCOCC1
-log(inh/100-inh) [1]: -0.908

c1cc2c(N3CCCCC3)cc(N3CCOCC3)nc2nc1N1CCCCC1
-log(inh/100-inh) [1]: -0.1224

Oc1ccc2c(N3CCOCC3)cc(N3CCOCC3)nc2n1
-log(inh/100-inh) [1]: -1.0048

Clc1ccc2c(N3CCOCC3)cc(N3CCOCC3)nc2n1
-log(inh/100-inh) [1]: -1.9956

Clc1ccc2c(N3CCCCC3)cc(N3CCOCC3)nc2n1
-log(inh/100-inh) [1]: -1.0607

c1cc2c(N3CCCCC3)cc(N3CCOCC3)nc2nc1N1CCOCC1
-log(inh/100-inh) [1]: -0.908

CC(=O)Nc1ccc2c(Cl)cc(N3CCCCC3)nc2n1
-log(inh/100-inh) [1]: -1.0607

Nc1ccc2c(Cl)cc(N3CCCCC3)nc2n1
-log(inh/100-inh) [1]: -0.2126

Nc1ccc2c(N3CCCCC3)cc(N3CCNCC3)nc2n1
-log(inh/100-inh) [1]: 0.4102

Nc1ccc2c(N3CCCCC3)cc(N3CCOCC3)nc2n1
-log(inh/100-inh) [1]: -1.195

O=C(CCc1ccc2c(-c3ccccc3)cc(O)nc2n1)OCCN1CCNCC1
-log(inh/100-inh) [1]: -0.7202

Oc1cc(-c2ccccc2)c2ccc(N3CCNCC3)nc2n1
-log(inh/100-inh) [1]: -0.908

c1ccc(-c2cc(N3CCCCC3)nc3nc(N4CCCCC4)ccc23)cc1
-log(inh/100-inh) [1]: 1.9956 | inhibition zone (IZ) (Staphylococcus aureus): 14 mm | inhibition zone (IZ) (Escherichia coli): 28 mm

c1ccc(-c2cc(N3CCOCC3)nc3nc(N4CCOCC4)ccc23)cc1
inhibition zone (IZ) (Staphylococcus aureus): 12 mm

c1ccc(-c2cc(CCN3CCNCC3)nc3nc(CCN4CCNCC4)ccc23)cc1
-log(inh/100-inh) [1]: 0.6297 | inhibition zone (IZ) (Staphylococcus aureus): 12 mm | inhibition zone (IZ) (Escherichia coli): 12 mm

c1cc(N2CCNCC2)ccc1-c1ccc2ccc(-c3ccc(N4CCNCC4)cc3)nc2n1
-log(inh/100-inh) [1]: -0.0522 | inhibition zone (IZ) (Staphylococcus aureus): 12 mm | inhibition zone (IZ) (Escherichia coli): 18 mm

Nc1ccc2c(-c3ccccc3)cc(N3CCCCC3)nc2n1
-log(inh/100-inh) [1]: 1.0048 | inhibition zone (IZ) (Staphylococcus aureus): 14 mm | inhibition zone (IZ) (Escherichia coli): 20 mm

Nc1ccc2c(-c3ccccc3)cc(N3CCOCC3)nc2n1
-log(inh/100-inh) [1]: -0.0522 | inhibition zone (IZ) (Staphylococcus aureus): 20 mm | inhibition zone (IZ) (Escherichia coli): 33 mm

Nc1ccc2c(-c3ccccc3)cc(CCN3CCNCC3)nc2n1
-log(inh/100-inh) [1]: 0.3475 | inhibition zone (IZ) (Staphylococcus aureus): 16 mm | inhibition zone (IZ) (Escherichia coli): 36 mm

Nc1ccc(-c2ccc3ccc(-c4ccc(N5CCNCC5)cc4)nc3n2)cc1
-log(inh/100-inh) [1]: 1.195 | inhibition zone (IZ) (Staphylococcus aureus): 16 mm | inhibition zone (IZ) (Escherichia coli): 32 mm

Oc1ccc2c(-c3ccccc3)cc(N3CCCCC3)nc2n1
inhibition zone (IZ) (Staphylococcus aureus): 24 mm

Oc1ccc2c(-c3ccccc3)cc(N3CCOCC3)nc2n1
inhibition zone (IZ) (Staphylococcus aureus): 20 mm | inhibition zone (IZ) (Escherichia coli): 26 mm

Oc1ccc2c(-c3ccccc3)cc(CCN3CCNCC3)nc2n1
-log(inh/100-inh) [1]: -0.3889 | inhibition zone (IZ) (Staphylococcus aureus): 12 mm

Oc1ccc(-c2ccc3c(-c4ccccc4)cc(-c4ccc(N5CCNCC5)cc4)nc3n2)cc1
-log(inh/100-inh) [1]: -0.3274 | inhibition zone (IZ) (Staphylococcus aureus): 14 mm | inhibition zone (IZ) (Escherichia coli): 14 mm

Clc1ccc2c(-c3ccccc3)cc(N3CCCCC3)nc2n1
-log(inh/100-inh) [1]: 0.368 | inhibition zone (IZ) (Staphylococcus aureus): 26 mm

Clc1ccc2c(-c3ccccc3)cc(N3CCOCC3)nc2n1
-log(inh/100-inh) [1]: -0.2499 | inhibition zone (IZ) (Staphylococcus aureus): 18 mm | inhibition zone (IZ) (Escherichia coli): 12 mm

Clc1ccc2c(-c3ccccc3)cc(CCN3CCNCC3)nc2n1
-log(inh/100-inh) [1]: 0.3274 | inhibition zone (IZ) (Escherichia coli): 16 mm

Clc1ccc(-c2ccc3c(-c4ccccc4)cc(-c4ccc(N5CCNCC5)cc4)nc3n2)cc1
-log(inh/100-inh) [1]: 0.0871 | inhibition zone (IZ) (Staphylococcus aureus): 22 mm | inhibition zone (IZ) (Escherichia coli): 14 mm

COc1ccc2c(-c3ccccc3)cc(N3CCCCC3)nc2n1
-log(inh/100-inh) [1]: 0.7533 | inhibition zone (IZ) (Escherichia coli): 20 mm

COc1ccc2c(-c3ccccc3)cc(N3CCOCC3)nc2n1
-log(inh/100-inh) [1]: -0.2689 | inhibition zone (IZ) (Escherichia coli): 24 mm

COc1ccc2c(-c3ccccc3)cc(CCN3CCNCC3)nc2n1
-log(inh/100-inh) [1]: 0.4102

COc1ccc(-c2ccc3ccc(-c4ccc(N5CCNCC5)cc4)nc3n2)cc1
-log(inh/100-inh) [1]: 0.7884 | inhibition zone (IZ) (Staphylococcus aureus): 28 mm

c1ccc(-c2cc3ccc(N4CCCCC4)nc3nc2N2CCCCC2)cc1
-log(inh/100-inh) [1]: 1.9956 | inhibition zone (IZ) (Staphylococcus aureus): 16 mm | inhibition zone (IZ) (Escherichia coli): 20 mm

O=[N+]([O-])c1cc2cc(-c3ccccc3)c(N3CCCCC3)nc2nc1N1CCCCC1
-log(inh/100-inh) [1]: 0.5754 | inhibition zone (IZ) (Staphylococcus aureus): 30 mm

Nc1cc2cc(-c3ccccc3)c(N3CCCCC3)nc2nc1N1CCCCC1
-log(inh/100-inh) [1]: 0.3889 | inhibition zone (IZ) (Escherichia coli): 26 mm

CCOC(=O)N1CCN(c2ccc3cc(-c4ccccc4)c(N4CCCCC4)nc3n2)CC1
-log(inh/100-inh) [1]: 1.0048 | inhibition zone (IZ) (Staphylococcus aureus): 15 mm | inhibition zone (IZ) (Escherichia coli): 18 mm

c1ccc(-c2cc3ccc(N4CCNCC4)nc3nc2N2CCCCC2)cc1
-log(inh/100-inh) [1]: 0.908 | inhibition zone (IZ) (Staphylococcus aureus): 18 mm | inhibition zone (IZ) (Escherichia coli): 14 mm

c1ccc(-c2cc3ccc(N4CCOCC4)nc3nc2N2CCCCC2)cc1
-log(inh/100-inh) [1]: 0.6886 | inhibition zone (IZ) (Staphylococcus aureus): 22 mm | inhibition zone (IZ) (Escherichia coli): 26 mm

Nc1ccc2cc(-c3ccccc3)c(N3CCCCC3)nc2n1
-log(inh/100-inh) [1]: 0.1581 | inhibition zone (IZ) (Staphylococcus aureus): 18 mm

CCOC(=O)N1CCN(c2ccc3cc(-c4ccccc4)c(N4CCN(C(=O)OCC)CC4)nc3n2)CC1
-log(inh/100-inh) [1]: -0.0348 | inhibition zone (IZ) (Staphylococcus aureus): 17 mm | inhibition zone (IZ) (Escherichia coli): 18 mm
